PubChem BioAssay (NCI)
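Protocol summary: plate cells (96-well), add compound at 5 concentrations, incubate 48 h, interpolate endpoints linearly. GI50 is the concentration that inhibits growth by half. At the TGI there is no net growth.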

Key:
Assay in all cases: inhibition of tumour cell growth, NCI panel, 48 h
OVCAR-4 ovarian = system: OVCAR-4 ovarian
SN12C renal = system: SN12C renal
TK-10 renal = system: TK-10 renal
SF-539 CNS = system: SF-539 CNS
HS 578T breast = system: HS 578T breast
NCI/ADR-RES ovarian = system: NCI/ADR-RES ovarian
K-562 leukemia = system: K-562 leukemia
KM12 colon = system: KM12 colon
SR leukemia = system: SR leukemia
SF-268 CNS = system: SF-268 CNS

| SMILES | TGI (OVCAR-4 ovarian) | TGI (SN12C renal) | TGI (TK-10 renal) | TGI (SF-539 CNS) | TGI (HS 578T breast) | TGI (NCI/ADR-RES ovarian) | TGI (K-562 leukemia) | TGI (KM12 colon) | TGI (SR leukemia) | TGI (SF-268 CNS) | GI50 (OVCAR-4 ovarian) | GI50 (SN12C renal) | GI50 (TK-10 renal) | GI50 (SF-539 CNS) | GI50 (HS 578T breast) | GI50 (NCI/ADR-RES ovarian) | GI50 (K-562 leukemia) | GI50 (KM12 colon) | GI50 (SR leukemia) | GI50 (SF-268 CNS) |
| --- | --- | --- | --- | --- | --- | --- | --- | --- | --- | --- | --- | --- | --- | --- | --- | --- | --- | --- | --- | --- |
| CC1(C)CC(=O)C2=C(C1)OC1(CC2c2ccc(Cl)cc2)CC(c2ccc(Cl)cc2)C2=C(CC(C)(C)CC2=O)O1 (stereo not drawn) | 30.6 µM | > 84.2 µM | > 83.8 µM | > 51.3 µM | 36.1 µM | > 73.3 µM | > 51.3 µM | 40.6 µM | 87.2 µM | 42 µM |  |  |  |  |  |  |  |  |  |  |
| O=P(O)(O)CN1CCNCCN(CP(=O)(O)O)CC1 | > 100 µM | > 100 µM | > 100 µM | > 100 µM | > 100 µM | > 44.9 µM | > 76.6 µM | > 100 µM | > 90.6 µM | > 100 µM |  |  |  |  |  |  |  |  |  |  |
| CC(=O)c1sc2[n+](c1C)C(=O)/C(=C\c1ccccc1Cl)S2 | > 100 µM | 78.8 µM | 57.3 µM | 44.7 µM | > 100 µM | 61.6 µM | 80.6 µM | 35.2 µM | 52.5 µM | 64.5 µM |  |  |  |  |  |  |  |  |  |  |
| C=C1C(=O)OC2C3OC(C)(CCC(O)C3COC(C)=O)CC(OC(=O)/C(=C/C)COC(C)=O)C12 (stereo not drawn) | 12.3 µM | 1.98 µM | 0.562 µM | 3.22 µM | 31.3 µM | 11 µM | 6.42 µM | 3.45 µM | 0.713 µM | 7.84 µM |  |  |  |  |  |  |  |  |  |  |
| CC(C)c1ccc(/C=C2\CSCC3=C2N=C2SCC(=O)N2C3c2ccc(C(C)C)cc2)cc1 (stereo not drawn) | > 100 µM | > 100 µM | > 100 µM | > 100 µM | > 100 µM | > 100 µM | > 100 µM | > 100 µM | > 100 µM | > 100 µM |  |  |  |  |  |  |  |  |  |  |
| COc1ccc(-c2n/c(=C\c3c(O)[nH]c4ccccc34)cc3c2=Nc2ccccc2-3)cc1 | 2.98 µM | 5.3 µM | 3.01 µM | 3.31 µM | 5.75 µM | 3.04 µM | 3.63 µM | 2.18 µM | 3.15 µM | 3.58 µM | 1.47 µM | 2.03 µM | 1.65 µM | 1.86 µM | 1.85 µM | 0.667 µM | 1.45 µM | 0.695 µM | 0.518 µM | 1.64 µM |
| O=S(=O)(O)c1ccc2c(N=Nc3ccc(Sc4ccc(N=Nc5c(O)ccc6cc(S(=O)(=O)O)ccc56)cc4)cc3)c(O)ccc2c1 | > 100 µM | > 100 µM | > 100 µM | > 100 µM | > 100 µM | > 100 µM | > 100 µM | > 100 µM | > 100 µM | > 100 µM |  |  |  |  |  |  |  |  |  |  |
| COc1ccc2c(c1)CCC/C2=N\NS(=O)(=O)c1c(C)cc(C)cc1C | 92.7 µM | 45.5 µM | > 100 µM | 41.5 µM | 61.8 µM | 59.9 µM | 41.6 µM | 32.9 µM | 49.5 µM |  |  |  |  |  |  |  |  |  |  |  |
| c1cc2c(cc1C1=NCCN1)c1cc(C3=NCCN3)ccc1n2CC1CCCCC1 | > 100 µM | 80.1 µM | > 100 µM | 19.2 µM | 32 µM | > 100 µM | > 100 µM | > 100 µM | 38.6 µM | 22.2 µM |  |  |  |  |  |  |  |  |  |  |
| CC(C)NC(=O)OCc1c(COC(=O)NC(C)C)c(-c2cc[n+](COC(=O)C3CCCCC3)cc2)n2c1CCC2 | > 100 µM | > 100 µM | > 100 µM | > 100 µM | > 100 µM | > 100 µM | > 100 µM | > 100 µM | > 100 µM | > 100 µM |  |  |  |  |  |  |  |  |  |  |
| COC(=O)c1cc(/C=C\c2cc(OC)ccc2OC)ccc1OC | > 100 µM | > 100 µM | > 100 µM | > 100 µM | > 100 µM | > 100 µM | 86 µM | > 100 µM | > 100 µM | > 100 µM |  |  |  |  |  |  |  |  |  |  |
| Cc1ccc2c(c1C)C(=O)/C(=C/c1cccc(C)c1C(=O)O)C2 | > 100 µM | > 100 µM | > 100 µM | > 100 µM | > 100 µM | > 100 µM | > 100 µM | > 100 µM | > 100 µM | > 100 µM |  |  |  |  |  |  |  |  |  |  |
| COCCN1C(=O)C2c3[nH]c4ccccc4c3C3CCC(C(C)(C)C)CC3C2C1=O (stereo not drawn) | 36.8 µM | 32.9 µM | > 10 µM | 35.6 µM | 38.8 µM | 42.6 µM | > 100 µM | 38.9 µM | 27 µM | 37.6 µM |  |  |  |  |  |  |  |  |  |  |
| CCOC(=O)/C=C/[C@@H](CC)O[Si](C(C)C)(C(C)C)C(C)C | > 100 µM |  | > 100 µM | > 100 µM | > 100 µM | > 100 µM | > 100 µM | > 100 µM | > 100 µM | > 100 µM |  |  |  |  |  |  |  |  |  |  |
| Cc1cc(=O)oc2c(CNC(CC(C)C)C(=O)O)c(O)ccc12 (stereo not drawn) | > 100 µM | > 100 µM | > 100 µM | > 100 µM | > 100 µM | > 100 µM | > 100 µM | > 100 µM | > 100 µM | > 100 µM |  |  |  |  |  |  |  |  |  |  |
| N#Cc1nc(/C=C/c2cccnc2)oc1N | > 100 µM | > 100 µM | > 100 µM | > 100 µM | > 100 µM | > 100 µM | > 100 µM | > 100 µM | > 100 µM | > 100 µM |  |  |  |  |  |  |  |  |  |  |
| COc1cc2c3c(cc(Cl)nc3c1OC)C(O)(CC(=O)c1ccccc1)C(=O)N2 (stereo not drawn) | 5.49 µM | 19.3 µM | 32.1 µM | 5.27 µM | 73.4 µM | 63.8 µM | 16.7 µM | 31.3 µM | > 29 µM | 13.7 µM |  |  |  |  |  |  |  |  |  |  |
| O=C(NCCCCCN1CCC2(CCCCC2)CC1)C(C1CCCCC1)C1CCCCC1 | 14.5 µM | 9.67 µM | 10.4 µM | 3.43 µM | 9.59 µM | 14.9 µM | 3.5 µM | 13 µM | 4.17 µM | 12.5 µM |  |  |  |  |  |  |  |  |  |  |
